{"source": "patent US4182712A", "about": "“5-Substituted thiadiazole ureas” (Mobil Oil Corporation, priority 1977, dated 1980)", "data": [{"system": "Cotton (CT)", "experiment": "Post-emergence herbicide test, cotton", "format": "in vivo, Gossypium hirsutum var. DPL smooth leaf", "conditions": "Gossypium hirsutum, 336 h, 2 lb/acre, two weeks after treatment", "method": "Cotton (CT)--Gossypium hirsutum var. DPL smooth leaf\n(§1) All crop and weed species were planted individually in 3\" plastic pots containing potting soil. Four seeds each of corn, cotton, and snapbeans were seeded to a depth equal to the diameter of the seed. All other species were surface seeded and sprinkled with screened soil in an amount sufficient to cover the seed. Immediately after planting, all pots were watered by sub-irrigation in greenhouse trays. Pots for the pre-emergence phase were seeded one day before treatment.\n(§2) Planting dates for the post-emergence phase were varied so that all seedlings would reach the desired stage of development simultaneously. The proper stage of seedling development for treatment in the post-emergence phase is as follows:\nCotton: first true leaf 1\" in length; expanded cotyledons.\n(§3) Compounds were tested at rates of application equivalent to 8 lbs. of actual compound per acre in a spray volume of 38 gallons per acre. Spray hood constants required to deliver the above volume are as follows:\n(§4) Formulations for spray applications were prepared in 50 ml volumes with the following three components:\n(§5) Formulations for the 4 lbs/acre rate were prepared by adjusting the amount of active ingredient accordingly.\n(§6) Spray applications were made in a hood containing a removable belt and fixed spray nozzle. […]", "units": {"pest or weed control at 2241.7 g/ha": "%"}, "values": [{"smiles": "CNC(=O)Nc1nnc(SCCCCl)s1", "note": "[Example 61]", "pest or weed control at 2241.7 g/ha": 40}]}, {"system": "Amaranth pigweed (PW)", "experiment": "Post-emergence herbicide test, amaranth pigweed", "format": "in vivo, Amaranthus retroflexus", "conditions": "336 h, 8 lb/acre, two weeks after treatment", "method": "as §1, §2\nPigweed and turnips: 1 or 2 true leaves above visible cotyledons.\nas §3, §4, §5, §6", "units": {"pest or weed control at 8966.8 g/ha": "%"}, "values": [{"smiles": "O=C(Nc1ccc(Cl)c(Cl)c1)Nc1nnc(C(F)(F)F)s1", "note": "[Example 16]", "pest or weed control at 8966.8 g/ha": 100}]}, {"system": "Corn (CN)", "experiment": "Post-emergence herbicide test, corn", "format": "in vivo", "conditions": "Zea mays, 336 h, 2 lb/acre, two weeks after treatment", "method": "as §1, §2, §3, §4, §5\nSpray applications were made in a hood containing a removable belt and fixed spray nozzle. For passage through the spray hood, one pot of each specie (pre-emergence phase) was placed on the rear half of the flat. Treatments were removed to the greenhouse after spraying. […]", "units": {"pest or weed control at 2241.7 g/ha": "%"}, "values": [{"smiles": "CNC(=O)Nc1nnc(SCCCCl)s1", "note": "[Example 61]", "pest or weed control at 2241.7 g/ha": 100}]}, {"system": "crops and weed species", "experiment": "Pre- and post-emergence herbicide tests, overall (Tables III-VI)", "format": "in vivo", "conditions": "in words", "method": "as §1, §2, §3\nTwo weeks after treatment, pre- and post-emergence injury or control was visually rated, and the results were as shown in the following tables. Pre-emergence data are provided in TABLE III and post-emergence data are provided in TABLE IV, for compounds having the formula illustrated in TABLE I. Correspondingly, pre-emergence and post-emergence data, respectively, are set forth in TABLES V AND VI, for compounds having the formula illustrated in TABLE II.", "values": [{"smiles": "CNC(=O)Nc1nnc(C(F)(F)F)s1", "note": "[Example 1, 1-Methyl-3-[5-Trifluoromethyl-2-(1,3,4-Thiadiazolyl)] Urea]", "herbicidal effectiveness on a variety of crops and weed species": "extremely effective"}, {"smiles": "CSc1nnc(N(C)C(=O)N(C)C)s1", "note": "[Example 5, 1,1,3-trimethyl-3-[5-methylthio-2-(1,3,4-thiadiazolyl)] urea]", "herbicidal effectiveness on a variety of crops and weed species": "extremely effective"}, {"smiles": "CN(C)C(=O)Nc1nnc(C(F)(F)F)s1", "note": "[Example 2, 1,1-Dimethyl-3-[5-Trifluoromethyl-2-(1,3,4-Thiadiazolyl)] Urea]", "herbicidal effectiveness on a variety of crops and weed species": "extremely effective"}, {"smiles": "CNC(=O)Nc1nnc(SC)s1", "note": "[Example 26]", "herbicidal effectiveness on a variety of crops and weed species": "extremely effective"}, {"smiles": "CNC(=O)Nc1nnc(CC(C)C)s1", "note": "[Example 21]", "selectivity toward a certain crop or weed species": "more selective when applied to a certain crop or weed species"}, {"smiles": "CCc1nnc(NC(=O)N(C)C)s1", "note": "[Example 20]", "selectivity toward a certain crop or weed species": "more selective when applied to a certain crop or weed species"}, {"smiles": "O=C(Nc1ccc(Cl)cc1)Nc1nnc(C(F)(F)F)s1", "note": "[Example 15]", "selectivity toward a certain crop or weed species": "more selective when applied to a certain crop or weed species"}, {"smiles": "CCNC(=O)Nc1nnc(C(F)(F)F)s1", "note": "[Example 9]", "selectivity toward a certain crop or weed species": "more selective when applied to a certain crop or weed species"}, {"smiles": "Cc1nnc(NC(=O)N(C)C)s1", "note": "[Example 19]", "selectivity post-emergence versus pre-emergence": "The converse of this relationship"}, {"smiles": "C=CCNC(=O)Nc1nnc(C(F)(F)F)s1", "note": "[Example 12]", "selectivity post-emergence versus pre-emergence": "control post-emergence growth, while have little effect in regard to pre-emergence"}, {"smiles": "CNC(=O)N(C)c1nnc(C(F)(F)F)s1", "note": "[Example 36]", "herbicidal effectiveness on a variety of crops and weed species": "extremely effective"}, {"smiles": "CNC(=O)Nc1nncs1", "note": "[Example 35]", "selectivity toward a certain crop or weed species": "more selective when applied to a certain crop or weed species"}, {"smiles": "O=C(Nc1ccc(Cl)c(Cl)c1)Nc1nnc(C(F)(F)F)s1", "note": "[Example 16]", "selectivity toward a certain crop or weed species": "more selective when applied to a certain crop or weed species"}, {"smiles": "CCN(C(=O)NC)c1nnc(C(F)(F)F)s1", "note": "[Example 37]", "herbicidal effectiveness on a variety of crops and weed species": "extremely effective"}, {"smiles": "CNC(=O)Nc1nnc(COC)s1", "note": "[Example 25]", "selectivity toward a certain crop or weed species": "more selective when applied to a certain crop or weed species"}]}]}
